Assay results reported in ChEMBL document CHEMBL5137082, “Discovery of a Novel Vascular Disrupting Agent Inhibiting Tubulin Polymerization and HDACs with Potent Antitumor Effects” (J Med Chem, 2022).
Activity calls are given as the source filed them. The rule behind the calls is not given here.

Experiments:
[1] = Toxicity in ICR mouse allografted with mouse H22 cells assessed as effect on body weight at 20 mg/kg, iv administered qd measured after 21 days; format: organism-based; conditions: in vivo, 504 h, time 21 day
[2] = target: Tubulin (Homo sapiens) (UniProt P68371+Q9H4B7+P0DPH7+P68366+Q13509+Q71U36+P04350+Q3ZCM7+P07437+P68363+Q9BQE3+Q6PEY2+Q13885+Q9BVA1+Q9BUF5); assay: Induction of microtubule disruption in human HepG2 cells assessed as loss of cellular structure at 7.5 to 30 nM measured after 2 hrs by DAPI staining based immunofluorescence microscopic assay; format: cell-based; conditions: dose 7.5-30 nM
[3] = system: HepG2; assay: Induction of apoptosis in human HepG2 cells assessed as early apoptotic cells at 7.5 nM incubated for 48 hrs by Annexin-V/PI-staining based flow cytometry (reference value: 4.61 +/- 0.46%); format: functional
[4] = Cardiotoxicity in ICR mouse allografted with mouse H22 cells assessed as effect on T wave at 20 mg/kg, iv administered qd measured after 21 days by ECG analysis; format: toxicity, organism-based; conditions: in vivo, 504 h, time 21 day
[5] = system: HepG2; assay: Induction of apoptosis in human HepG2 cells assessed as early apoptotic cells at 15 nM incubated for 48 hrs by Annexin-V/PI-staining based flow cytometry (reference value: 4.61 +/- 0.46%); format: functional
[6] = Cardiotoxicity in ICR mouse allografted with mouse H22 cells assessed as effect on QRS complex at 20 mg/kg, iv administered qd measured after 21 days by ECG analysis; format: toxicity, organism-based; conditions: in vivo, 504 h, time 21 day
[7] = system: HepG2; assay: Induction of apoptosis in human HepG2 cells assessed as viable cells at 7.5 nM incubated for 48 hrs by Annexin-V/PI-staining based flow cytometry (reference value: 91.44 +/- 0.74%); format: functional; conditions: read-out: Activity

**Q.** Which Activity [1] does the source give for `COc1ccc(CNC(=O)c2cc(F)ccc2N2CCOCC2)cc1/C=C/C(=O)NO` here?
**A.** Non-Toxic

**Q.** And the Activity [2]?
**A.** Active

**Q.** What about the Activity [3] of the same compound?
**A.** 20.15%

**Q.** And the Activity [4]?
**A.** Non-Toxic

**Q.** What about the Activity [5] of the same compound?
**A.** 26.84%

**Q.** And the Activity [6]?
**A.** Non-Toxic

**Q.** And the viability at 0.0075 µM [7]?
**A.** 71.6%
